Test results as given in ChEMBL document CHEMBL1240296, “Pharmacological inhibitors of glycogen synthase kinase 3” (Trends Pharmacol Sci, 2004).

What was measured:
[1] = target: Cyclin-dependent kinase 2/cyclin A (Homo sapiens) (UniProt P24941+P20248+P78396); assay: (§1) Inhibition of CDK2/cyclinA at 10 mM; assay type: protein-complex assay
[2] = target: Glycogen synthase kinase-3 beta (Homo sapiens, UniProt P49841)
[3] = Inhibition of GSK3
[4] = target: Cyclin-dependent kinase 2/cyclin A (Homo sapiens, UniProt P24941); assay: as §1; assay type: protein-complex assay
[5] = target: Cyclin-dependent kinase 1/cyclin B (Homo sapiens, UniProt P06493); assay type: protein-complex assay
[6] = target: Glycogen synthase kinase-3 alpha (Homo sapiens, UniProt P49840)
Glycogen synthase kinase-3 alpha, sequence (P49840 whole entry): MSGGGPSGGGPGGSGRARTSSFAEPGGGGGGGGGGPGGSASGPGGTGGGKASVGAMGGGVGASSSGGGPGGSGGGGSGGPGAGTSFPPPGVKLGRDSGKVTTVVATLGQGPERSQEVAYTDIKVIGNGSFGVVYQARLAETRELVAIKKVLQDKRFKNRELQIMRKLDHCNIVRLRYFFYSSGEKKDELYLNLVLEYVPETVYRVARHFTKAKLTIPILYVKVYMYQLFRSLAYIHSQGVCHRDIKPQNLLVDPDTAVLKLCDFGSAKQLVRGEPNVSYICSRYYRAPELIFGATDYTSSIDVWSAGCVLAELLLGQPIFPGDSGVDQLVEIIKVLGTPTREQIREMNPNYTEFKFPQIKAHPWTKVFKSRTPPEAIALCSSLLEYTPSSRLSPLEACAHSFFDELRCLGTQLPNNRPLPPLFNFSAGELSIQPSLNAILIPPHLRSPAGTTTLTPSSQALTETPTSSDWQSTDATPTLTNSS

[7] = target: Glycogen synthase kinase-3 (Homo sapiens, UniProt P49840+P49841); assay type: protein assay

Glycogen synthase kinase-3 beta, sequence (P49841 whole entry): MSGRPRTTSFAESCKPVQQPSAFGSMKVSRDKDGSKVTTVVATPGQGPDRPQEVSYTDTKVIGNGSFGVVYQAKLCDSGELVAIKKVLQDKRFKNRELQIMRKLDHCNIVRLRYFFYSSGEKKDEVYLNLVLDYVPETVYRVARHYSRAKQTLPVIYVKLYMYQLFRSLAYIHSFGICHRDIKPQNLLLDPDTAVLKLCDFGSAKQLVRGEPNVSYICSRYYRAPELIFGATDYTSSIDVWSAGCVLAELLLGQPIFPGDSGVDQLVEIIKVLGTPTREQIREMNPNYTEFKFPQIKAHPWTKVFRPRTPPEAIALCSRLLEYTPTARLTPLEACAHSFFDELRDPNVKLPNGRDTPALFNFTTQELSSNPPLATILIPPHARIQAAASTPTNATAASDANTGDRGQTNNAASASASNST

| SMILES | IC50 [3] [nM] | IC50 [5] [nM] | further results |
| --- | --- | --- | --- |
| CN(C)CCC(=O)Nc1n[nH]c2nnc(-c3ccccc3)cc12 | – | – | inhibition [1]: 90% |
| Cn1cc(C2=C(c3cn(CCCSC(=N)N)c4ccccc34)C(=O)NC2=O)c2ccccc21 [BISINDOLYLMALEIMIDE IX] | – | – | IC50 [2]: 3 nM |
| O=Nc1c(-c2c(O)[nH]c3ccccc23)[nH]c2ccccc12 [INDIRUBIN-3-MONOXIME] | 5 | – | – |
| Nc1nonc1-n1nnc(-c2nnc(-c3ccncc3)[nH]2)c1CN1CCCCC1 | – | – | IC50 [4]: > 250000 nM |
| Nc1nc(NCCNc2ncc(-c3ncc[nH]3)c(-c3ccc(Cl)cc3Cl)n2)ccc1[N+](=O)[O-] | – | 3700 | IC50 [6]: 0.65 nM |
| OCCCNc1cc(-c2ccnc(Nc3cccc(Cl)c3)n2)ccn1 | 10 | – | – |
| CN(C)CCCn1cc(C2=C(c3c[nH]c4ccccc34)C(=O)NC2=O)c2ccccc21 [GF-109203] | – | 2300 | IC50 [2]: 190 nM |
| O=C1NC(=O)C2=C1c1cn(c3ncccc13)CCCC1=CC=C(CCCn3cc2c2cccnc23)S1 | – | – | IC50 [2]: 36 nM |
| COc1cccc(-n2ncc3c(N/N=C/c4ccncc4)ncnc32)c1 [GW784752X] | – | – | IC50 [2]: 16 nM |
| O=C1NC(=O)C2=C1c1cn(c3ncccc13)CCOCCOCCOCCOCCn1cc2c2cccnc21 | – | – | IC50 [2]: 34 nM |
| COc1ccc2c(c1)/C(=C/c1cnc[nH]1)C(=O)N2 [SU-9516] | 330 | – | – |
| NC1N=Nc2nc3ccccc3nc21 (configuration not stated) | 1000 | 600 | – |
| CN1CC[C@H](c2c(O)cc(O)c3c(=O)cc(-c4ccccc4Cl)oc23)[C@H](O)C1 [ALVOCIDIB] | 450 | – | – |
| O=C1NC(=O)C(c2cccc(Cl)c2)=C1Nc1ccc(Cl)c(C(=O)O)c1 | – | – | IC50 [4]: > 10000 nM |
| Ic1cccc(CSc2nnc(-c3ccncc3)o2)c1 | – | > 10000 | – |
| O=C1NC(=O)C(c2ccccc2[N+](=O)[O-])=C1Nc1ccc(O)c(Cl)c1 | – | 900 | – |
| Cn1cc(C2=C(c3ccc(Cl)cc3Cl)C(=O)NC2=O)c2ccccc21 [SB-216763] | – | 550 | – |
| Nc1cccc(-c2cc3c(Oc4cccc(O)c4)ncnc3[nH]2)c1 | – | – | IC50 [2]: 30 nM |
| CCCCc1c(-c2ccc(O)cc2)[nH]c2nccnc12 [ALOISINE A] | 650 | – | – |
| CN1CCN(c2ccc(NCCNc3ccc([N+](=O)[O-])c(N)n3)nc2-c2ccc(Cl)cc2Cl)C(=O)C1 | – | – | IC50 [7]: 4 nM |
| CC(C)c1c(-c2ccc(Cl)cc2)[nH]c2nccnc12 | 750 | 850 | – |
| CN[C@@H]1C[C@H]2O[C@@](C)([C@@H]1OC)n1c3ccccc3c3c4c(c5c6ccccc6n2c5c31)C(=O)NC4 [STAUROSPORINE] | 15 | – | – |
| Cn1sc(=O)n(Cc2ccccc2)c1=O | – | > 10000 | – |
